Results from patent US20220098674A1, “METHODS AND COMPOSITIONS FOR SELECTING A CANCER TREATMENT IN A SUBJECT SUFFERING FROM CANCER” (INSERM (INSTITUT NATIONAL DE LA SANTÉ ET DR LA RECHERCH …, priority 2019, published 2022).

How the values were obtained:
RCC4 siVDAC1 cells = test: Invasion assay (aggressiveness) of RCC4 siVDAC1 cells treated with 3BP; format: cell-based
Description: The invasion assay was performed using cell culture inserts with 8.0 μm pore transparent PET membrane coated with 10 μg/mL fibronectin. Inserts were coated with 2 μg/μL of Matrigel and incubated for 3 h at 37° C. in a CO2 incubator. Briefly, overnight serum-starved cells (8×10^4 cells) were seeded into the top chamber in medium without FBS, while medium with 10% FBS was present in the bottom chamber. The cells were incubated for 24 h. Media and remaining cells were removed from the top chamber with a cotton swab and washed twice with PBS. The bottom chamber was aspirated and washed twice with PBS. Inserts were fixed with 4% PFA. Invasiveness was assayed in triplicate for each condition, in at least three independent experiments. Cells that invaded the Matrigel and migrated through the filter and adhered to the lower surface were stained for 10 min with 0.5% crystal violet in 25% methanol. Inserts were rinsed in distilled water until no additional stain leached and were air-dried overnight. Crystal violet was extracted from the invading cells by adding 600 μl of 0.1M sodium citrate in 10% acetic acid. Absorbance was measured spectrophotometrically at 585 nm using Spectronic GENESYS 5 (Milton Roy, Rochester, N.Y.). Microarray experiments Microarray experiments were already described (22). […]

[1] = tested on: RCC4+pVHL, RCC4 and RCC4 siVDAC1 cells; test: Sensitivity of RCC4 cell variants to sunitinib or 3BP treatment; format: cell-based
Description: RCC4/pVHL and 786-O/pVHL cells were grown in Dulbecco's Modified Eagle's Medium (DMEM) (Gibco-BRL) supplemented with 10% fetal bovine serum with penicillin G (50 U/ml) and streptomycin sulfate (50 μg/ml). ACHN and A498 RCC cell lines were purchased from the ATCC (Mar. 3, 2013). The RCC10 cell line was a kind gift from Dr. W. H. Kaelin (Dana-Farber Cancer Institute, Boston, Mass.). An INVIVO2 200 anaerobic workstation (Ruskinn Technology Biotrace International Plc) set at 1% oxygen, 94% nitrogen and 5% carbon dioxide was used for hypoxic conditions.
Cells (5000-10000) were plated on 60 mm dishes and incubated at 37° C., 5% CO2 for colony formation. After 10 days, colonies were fixed with 10% (v/v) methanol for 15 min and stained with 5% Giemsa (Sigma) for 30 min for colony visualization.
Sunitinib, a vascular endothelial growth factor receptor inhibitor is widely used for patients with metastatic RCC. RCC4+pVHL−, RCC4− and RCC4 siVDAC1− cells were treated with 1.0 and 1.5 μM of sunitinib (Data not shown). […] As RCC4 cells with VDAC1-ΔC present a higher glycolysis than RCC4+pVHL cells, we used 3 Bromopyruvate (3BP), an halogenated analogue of pyruvic acid that enters cells like a lactate via monocarboxylic acid transporters, to block glycolysis.

RCC4 cells = test: Cell death in RCC4 cells, siRNA to VDAC1 or AEP combined with 3BP; format: cell-based; settings: 3BP combined with siRNA to VDAC1 or AEP
Excerpt: In patients who progressively lose the primary cilium, this loss generated increased metabolism and greater resistance to cell death, promoting tumor growth. Since this loss was related to the presence of the cleaved form of VDAC1, the strategy would therefore be to prevent the cleavage of VDAC1 to restore the presence of the primary cilium. […] Indeed, we characterized a signature related to EMT that can explain the aggressive phenotype of the tumors of these patients. However, remodeling of metabolism was changed. Although cancer metabolism is a hallmark of cancer, it has been shown that aberrant metabolism supports EMT (47,48). […] It is therefore possible to envisage specific treatment for these groups: Temsirolimus (50) or Everolimus, specific inhibitors of mTOR (51) that block proliferation, in combination with small molecule inhibitors that prevent EMT such as EW-7197 or IN-1130, through a block in TGFβ1 and 2, have already been used in metastatic breast and lung cancer (52). By maintaining only one metabolic pathway, cancer cells with a GLI1+/IFT20+ signature offer a metabolic vulnerability that it would be wise to exploit. […] Finally, combination of an immune checkpoint inhibitor such as atezolizumab or nivolumab (an anti-PDL1 or PD1 inhibitor) alone or plus 3-bromopyruvate could be evaluated on PC+ patients with such reduced overall survival (FIG. 1). […]

ccRCC = test: Survival (PFS, OS) of sunitinib-treated ccRCC patients by GLI1/IFT20 primary cilium signature, clinical trial SUVEGIL; format: in vivo, human; settings: ccRCC patients treated with sunitinib, no VDAC1-ΔC
Description: FIG. 3. Patients with primary cilium signature present a higher immunogenicity compared to no primary cilium signature and a better response to immunotherapy. (A) Progression free-survival (PFS) and (B) Overall survival (OS) for the primary cilium signature was calculated from patients of the TCGA cohort C treated with sunitinib using the GLI1/IFT20 signature. Statistical significance (p-value) is indicated. The median survival is also indicated.
The Student's t-test was used to compare continuous variables and chi-square test, or Fisher's exact test (when the conditions for use of the χ2-test were not fulfilled), were used for categorical variables. To guarantee the independence of primary cilium as a prognostic factor, the multivariate analysis was performed using Cox regression adjusted to the stage and age. DFS was defined as the time from surgery to the appearance of metastasis. OS was defined as the time between surgery and the date of death from any cause, censoring those alive at last follow-up. The Kaplan-Meier method was used to produce survival curves and analyses of censored data were performed using Cox models. All analyses were performed using R software, version 3.2.2 (Vienna, Austria, https://www.r-project.org/).
We thus checked if PC+ patients with a GLI1+/IFT20+ signature and no VDAC1-ΔC are resistant or sensitive to sunitinib.

Row | Compound | aggressiveness (invasion) compared to control (RCC4 siVDAC1 cells) | sensitivity to 3BP ([1]; cells presenting no VDAC1-ΔC or less VDAC1, 10 and 25 μM) | cell death (RCC4 cells) | survival (PFS and OS) of PC+ patients versus PC− groups (ccRCC) | sensitivity to sunitinib ([1]; RCC4+pVHL, RCC4 and RCC4 siVDAC1 cells (all these cells), 1.0 and 1.5 μM) | sensitivity to sunitinib ([1]; RCC4 cells expressing no VDAC1-ΔC) | sensitivity to sunitinib, relative ([1]; cells with VDAC1-ΔC versus RCC4+pVHL cells or cells with no VDAC1-ΔC or less VDAC1, 1.0 and 1.5 μM)
1 | O=C(O)C(=O)CBr [3BP, 3-bromopyruvate] | strongly decreased | highly sensitive | increased cell death | – | – | – | –
2 | CCN(CC)CCNC(=O)c1c(C)[nH]c(/C=C2\C(=O)Nc3ccc(F)cc32)c1C [sunitinib, N-[2-(diethylamino)ethyl]-5-{[(3Z)-5-fluoro-2-oxo-2,3-dihydro-1H-indol-3-ylidene]methyl}-2,4-dimethyl-1H-pyrrole-3-carboxamide] | – | – | – | lower survival | sensitive | less sensitive | slightly more sensitive
